We go through one compound from publication PMC6316731 (Brain Sciences, 2018).

The assay concerns GABA induced current in MSNs (GABAA receptors with δ subunits / GABAC receptors). The assay is classed as cell-based, mouse.

The term EC50 denotes the midpoint of the concentration-response curve.

Turning to `Oc1noc2c1CCNC2` [Gaboxadol, 4,5,6,7-tetrahydroisoxazolo (5,4-c) pyridin-3-ol], the “Effect on IGABA” value was “concentration-dependent reduction in IGABA”. Moreover, the EC50 (read-out: EC50, percent reduction in current by Gaboxadol) was 9.81 ± 3.56 µM.
